This data set can be described thus: ionization of the phosphonate group (pK values). The format is physicochemical. From the text:
[drawing 33] it is isosteric with phosphorylated histidine. Further, the electrostatics of the phosphonoltriazolylalanine mimic those of phosphorylated Histidine. In particular, the phosphonate group of N-methyl-triazolylphosphonic acid is fully ionized at physiological pH (pK1=2.3 and pKA2=5.3), analogous to pHis.

With N-methyl-triazolylphosphonic acid, the “pK1 of the phosphonate group” value was 2.3 and the “pKA2 of the phosphonate group” value was 5.3.

The record behind these values is patent US9765154B2, “Phosphohistidine analogs” (THE ROCKEFELLER UNIVERSITY, priority 2010, dated 2017).
